We go through 8 compounds from patent publication US5212320A, “Indole derivatives and their use for testosterone 5-alpha-reductase-mediated diseases” (Fujisawa Pharmaceutical Co., Ltd., priority 1990, dated 1993).

Structures can show the parent of a compound that is named as a salt.

This test deals with testosterone 5α-reductase. The test can be described thus: Inhibitory activity on testosterone 5α-reductase in rats (prostatic testosterone 5α-reductase assay). Type of test: biochemical, rat (Spraque-Dawley male. The settings on record: rat ventral prostate suspension; 2.2×10^-9 M 1,2,6,7-^3H-testosterone/testosterone; 50 μM NADPH; pH 6.5; 37° C., 30 minutes. The source says: [2] INHIBITORY ACTIVITY ON TESTOSTERONE 5α-REDUCTASE IN RATS
1,2,6,7-^3 H-Testosterone (85-105 Ci/mmol): 1,2,6,7-^3 H-Testosterone (85-105 Ci/mmol) is a mixture of 1,2,6,7-^3 H-testosterone and testosterone which includes 85-105 Ci of 1,2,6,7-^3H-testosterone per mmol of testosterone and is purchased from New England Nuclear, Boston, Mass., U.S.A.
Aquazol-2 (Aquazol-2 Universal LSC Cocktail): trademark, purchased from New England Nuclear, Boston, Mass., U.S.A.
Mature Spraque-Dawley male rats (7-8 weeks old) were sacrificed by diethyl ether. The ventral prostates were dissected to be free of their capsules and their combined volume was measured by displacement in several milliliters of ice-cold medium A (0.32M sucrose, 0.1 mM dithiothreitol and 20 mM scdium phosphate, pH 6.5). Unless specified, all the following procedures were carried out at 0°-4° C. The prostates were drained, minced, and then homogenized in 3-4 tissue volumes of medium A with Pyrex-glass homogenizer. The homogenate was fractioned by differential centrifugations at 3,000 g for 15 minutes. The resulting pellets were resuspended in medium A. The suspension (20-30 mg protein/ml) was stored at -80° C.
The reaction solution contains 1 mM dithiothreitol, 40 mM sodium phosphate pH 6.5, 50 μM NADPH, 1,2,6,7-^3 H-testosterone/testosterone (2.2×10^-9 M) and the suspension prepared above (0.8 mg of protein) in a total volume of 565 μl. Test Compound was added in 10 μl of 10% ethanol whereas control tubes received the same volume of 10% ethanol. The reaction was started with the addition of the enzyme suspension. After incubation at 37° C. for 30 minutes, the reaction was extracted with 1 ml of ethyl acetate. Fifty μl of ethyl acetate phase was chromatographed on a Merck silica plastic sheet Kieselgel 60 F254, using ethyl acetate: cyclohexane (1:1) as the developing solvent system. The plastic sheet was air dried and cut the testosterone and the 5α-dihydrotestosterone areas. The radioactivity was counted in 5 ml of Aquazol-2 in Packard scintillation counter (PACKARD TRI - CARB 4530), and an inhibitory ratio was calculated.
For `CC(C)Cc1ccc(C(Nc2cccc(C(=O)c3cn(CCCC(=O)O)c4ccccc34)c2)c2ccc(CC(C)C)cc2)cc1` [(1), 4-[3-[3-[Bis(4-isobutylphen-yl)methylamino]benzoyl]indol-1-yl]butyric acid], the half-inhibitory concentration (IC50) was 5.5 nM. `Cc1c(C(=O)c2cccc(NC(c3ccc(CC(C)C)cc3)c3ccc(CC(C)C)cc3)c2)c2ccccc2n1CCCC(=O)O` [(2), 4-[3-[3-[Bis(4-isobutylphenyl)methylamino]benzoyl]-2-methylindol-1-yl]butyric acid] had an IC50 of 8.6 nM. Take `CC(C)Cc1ccc(C(Oc2ccc(C(=O)c3cn(CCCC(=O)O)c4ccccc34)cc2)c2ccc(CC(C)C)cc2)cc1` [(3), 4-[3-[4-[Bis(4-isobutylphenyl)methoxy]benzoyl]indol-1-yl]butyric acid]: the midpoint of inhibition, the IC50, lay at 3.5 nM. This IC50 is about 2.5-fold lower than that of the compound before.

`CC(C)Cc1ccc(C(C)Oc2ccc(C(=O)c3cn(CCCC(=O)O)c4ccccc34)cc2)cc1` (centres unmarked) [(4), 4-[3-[4-[1-(4-Isobutylphenyl)ethoxy]benzoyl]indol-1-yl]butyric acid] returned a 50% inhibitory concentration (IC50) of 3.1 nM. This IC50 and that of the compound before are within 1.5-fold of each other. `CC(C)Cc1ccc(C(Cc2cccc(C(=O)c3cn(CCCC(=O)O)c4ccccc34)c2)c2ccc(CC(C)C)cc2)cc1` [(5), 4-[3-[3-[2,2-Bis(4-isobutylphenyl)ethyl]benzoyl]indol-1-yl]butyric acid] showed a concentration for half-maximal inhibition (IC50) of 7.4 nM. Compared with the last compound, the IC50 is about 2.4-fold higher. On to `O=C(O)CCCn1cc(C(=O)c2cccc(CN3c4ccccc4CCc4ccccc43)c2)c2ccccc21` [(6), 4-[3-[3-(10,11-Dihydro-5H-dibenz[b,f]azepin-5-ylmethyl)benzoyl]indol-1-yl]butyric acid], for which the IC50 was determined as 0.93 nM. Under `CC(C)Cc1ccc(CNc2cc(NCc3ccc(CC(C)C)cc3)cc(C(=O)c3cn(CCCC(=O)O)c4ccccc34)c2)cc1` [(7), 4-[3-[3,5-Bis[(4-isobutylbenzyl)amino]benzoyl]indol-1-yl]butyric acid dihydrochloride] stands 3.7 nM; under `CCCCC(Oc1ccc(C(=O)c2cn(CCCC(=O)O)c3ccccc23)cc1)c1ccc(CC(C)C)cc1` (centres unmarked) [(8)], 0.66 nM.

What is called IC50 is the midpoint of a concentration-inhibition curve. Read a low IC50 as greater potency in that assay.
